Test results from patent US9241887B2, “Systems and methods for skin rejuvenation” (Sesvalia USA, LLC, priority 2009, dated 2016).

Tests used:
[1] = cited from earlier work
[2] = Antioxidant activity of active ingredients alone and combined (FIG. 1); conditions: for synergistic effect on antioxidant activity: ingredients combined; for antioxidant activity when combined with Vitamin C and Vitamin E: polyphenol derivatives combined with Vitamin C and Vitamin E; for antioxidant activity relative to vehicle: ingredient alone, control = vehicle (mixture of ethanol and macrogol)
[3] = phospholipidic membranes; cited from earlier work
human skin = conditions: cited from earlier work
[4] = system: seasonal allergic rhinoconjunctivitis; conditions: oral supplementation; cited from earlier work
[5] = gastrointestinal tract and skin; cited from earlier work
[6] = system: human keratinocyte cell lines; conditions: cited from earlier work
mild atopic dermatitis = conditions: 0.3% rosmarinic acid emulsion, topical application; cited from earlier work
[7] = system: human polymorphonuclear leukocytes; conditions: cited from earlier work

Q: For O=C(CCc1ccc(O)cc1)c1c(O)cc(O)cc1O [phloretin, Phloretin], which solubility in ethanol [1] is on record?
A: very soluble in ethanol

Q: And the solubility in water [1]?
A: insoluble in water

Q: And the “synergistic effect on antioxidant activity” value [2]?
A: synergistic effect

Q: And the “antioxidant activity when combined with Vitamin C and Vitamin E” value (from here on “antioxidant activity when combined”) [2]?
A: stronger antioxidant activity (more than twice)

Q: With O=C(O)/C=C/c1ccc(O)c(O)c1 [caffeic acid, 3,4-dihydroxycinnamic acid] as the compound, how does the “protection from UV-induced peroxidation” value [3] read?
A: protect phospholipidic membranes from UV-induced peroxidation

Q: And the “protection from UVB-induced erythema” value (human skin)?
A: protect human skin from UVB-induced erythema

Q: And the “antioxidant activity when combined” value [2]?
A: stronger antioxidant activity (more than twice)

Q: Which “treatment of seasonal allergic rhinoconjunctivitis” value [4] does the source give for O=C(/C=C/c1ccc(O)c(O)c1)O[C@H](Cc1ccc(O)c(O)c1)C(=O)O [rosmarinic acid, alpha-o-caffeoyl-3,4-dihydroxyphenyl lactic acid] here?
A: effective treatment for seasonal allergic rhinoconjunctivitis

Q: And the absorption [5]?
A: well absorbed through the gastrointestinal tract and the skin

Q: What about the “photoprotective effect against UVA-induced alterations” value [6] of the same compound?
A: photoprotective effects against alterations induced by UVA exposure

Q: What about the “symptoms of mild atopic dermatitis” value (mild atopic dermatitis) of the same compound?
A: improves some symptoms of the disease including the erythema, transepidermal water loss, xerosis and pruritus

Q: What about the “antioxidant activity when combined” value [2] of the same compound?
A: stronger antioxidant activity (more than twice)

Q: What about the “leukotriene B4 production” value [7] of the same compound?
A: reduce leukotriene B4 production

Q: What about the “prostaglandin E2 production” value [7] of the same compound?
A: augment prostaglandin E2 production

Q: With COc1cc(/C=C/C(=O)O)ccc1O [ferulic acid, Ferulic acid] as the compound, how does the “behaviour at acidic pH” value ([1]; acidic pH) read?
A: precipitates into crystals

Q: And the “synergistic effect on antioxidant activity” value [2]?
A: synergistic effect

Q: What about the “antioxidant activity when combined” value [2] of the same compound?
A: stronger antioxidant activity (more than twice)

Q: With Vitamin E as the compound, how does the “antioxidant activity relative to vehicle” value [2] read?
A: more than twice as much antioxidant activity as the vehicle

Q: What does the source list for O=C1O[C@H]([C@@H](O)CO)C(O)=C1O [Vitamin C, ascorbic acid]?
A: antioxidant activity relative to vehicle [2]: more than twice as much antioxidant activity as the vehicle; synergistic effect on antioxidant activity [2]: synergistic effect
